PubChem BioAssay AID1745844 (Carcinogenic Potency Database (CPDB), 2022)

Test system: rodent lifetime carcinogenesis bioassay, tumor incidence TD50
Test: chronic cancer bioassays in animals – CPDB, compiled studies (AID 1745844)
Settings: mouse, strain B6C3F1, males, inhaled

`C=CC=C` gave a TD50 (site: all sites, lesion: malignant lymphoma, mixed type + malignant lymphoma, lymphocytic type + malignant lymphoma, dosed 26 weeks, study length 104 weeks) of 31.3 mg/kg/day, a TD50 (site: all sites, lesion: malignant lymphoma, mixed type + malignant lymphoma, lymphocytic type + malignant lymphoma, dosed 40 weeks, study length 104 weeks) of 108 mg/kg/day and a TD50 (site: all sites, lesion: malignant lymphoma, mixed type + malignant lymphoma, lymphocytic type + malignant lymphoma, dosed 52 weeks, study length 104 weeks) of 46.4 mg/kg/day. The TD50 (site: all sites, lesion: malignant lymphoma, mixed type + malignant lymphoma, dosed 13 weeks, study length 104 weeks) was 78.1 mg/kg/day, the TD50 (site: all sites, lesion: malignant lymphoma, mixed type + malignant lymphoma, dosed 26 weeks, study length 104 weeks) was 111 mg/kg/day and the TD50 (site: all sites, lesion: malignant lymphoma, mixed type + malignant lymphoma, dosed 40 weeks, study length 104 weeks) was 487 mg/kg/day. For the same compound, the TD50 (site: all sites, lesion: malignant lymphoma, mixed type + malignant lymphoma, dosed 52 weeks, study length 104 weeks) was 76.2 mg/kg/day, the TD50 (site: any site (literature study), lesion: several types, types named in the paper, dosed 13 weeks, study length 104 weeks) was 6.92 mg/kg/day and the TD50 (site: any site (literature study), lesion: several types, types named in the paper, dosed 26 weeks, study length 104 weeks) was 12.5 mg/kg/day. For the same compound, the TD50 (site: any site (literature study), lesion: several types, types named in the paper, dosed 40 weeks, study length 104 weeks) was 10.8 mg/kg/day, the TD50 (site: any site (literature study), lesion: several types, types named in the paper, dosed 52 weeks, study length 104 weeks) was 5.84 mg/kg/day and the TD50 (site: any site (literature study), lesion: several types, types named in the paper, dosed 60 weeks, study length 60 weeks) was 28.8 mg/kg/day. For the same compound, the TD50 (site: any site (literature study), lesion: several types, types named in the paper, dosed 82 weeks, study length 104 weeks) was 10.5 mg/kg/day, the TD50 (site: brain, lesion: olfactory lobe, glioma malignant, dosed 13 weeks, study length 104 weeks) was 230 mg/kg/day and the TD50 (site: brain, lesion: olfactory lobe, glioma malignant, dosed 26 weeks, study length 104 weeks) was 403 mg/kg/day. It also gave a TD50 (site: brain, lesion: olfactory lobe, neuroblastoma malignant, dosed 13 weeks, study length 104 weeks) of 394 mg/kg/day, a TD50 (site: forestomach, lesion: papilloma, NOS + squamous-cell carcinoma + squamous-cell papilloma, dosed 60 weeks, study length 60 weeks) of 120 mg/kg/day and a TD50 (site: forestomach, lesion: papilloma, NOS + squamous-cell papilloma, dosed 60 weeks, study length 60 weeks) of 140 mg/kg/day. For the same compound, the TD50 (site: forestomach, lesion: squamous-cell carcinoma + squamous-cell papilloma, dosed 13 weeks, study length 104 weeks) was 44.8 mg/kg/day, the TD50 (site: forestomach, lesion: squamous-cell carcinoma + squamous-cell papilloma, dosed 26 weeks, study length 104 weeks) was 91.4 mg/kg/day and the TD50 (site: forestomach, lesion: squamous-cell carcinoma + squamous-cell papilloma, dosed 40 weeks, study length 104 weeks) was 171 mg/kg/day. It also gave a TD50 (site: forestomach, lesion: squamous-cell carcinoma + squamous-cell papilloma, dosed 52 weeks, study length 104 weeks) of 42.8 mg/kg/day, a TD50 (site: forestomach, lesion: squamous-cell carcinoma + squamous-cell papilloma, dosed 60 weeks, study length 60 weeks) of 557 mg/kg/day and a TD50 (site: forestomach, lesion: squamous-cell carcinoma + squamous-cell papilloma, dosed 82 weeks, study length 104 weeks) of 197 mg/kg/day. It also gave a TD50 (site: forestomach, lesion: squamous-cell carcinoma, dosed 13 weeks, study length 104 weeks) of 43.4 mg/kg/day, a TD50 (site: forestomach, lesion: squamous-cell carcinoma, dosed 26 weeks, study length 104 weeks) of 136 mg/kg/day and a TD50 (site: forestomach, lesion: squamous-cell carcinoma, dosed 52 weeks, study length 104 weeks) of 154 mg/kg/day. It also gave a TD50 (site: forestomach, lesion: squamous-cell papilloma, dosed 13 weeks, study length 104 weeks) of 117 mg/kg/day, a TD50 (site: forestomach, lesion: squamous-cell papilloma, dosed 26 weeks, study length 104 weeks) of 284 mg/kg/day and a TD50 (site: forestomach, lesion: squamous-cell papilloma, dosed 40 weeks, study length 104 weeks) of 171 mg/kg/day. For the same compound, the TD50 (site: forestomach, lesion: squamous-cell papilloma, dosed 52 weeks, study length 104 weeks) was 77.7 mg/kg/day, the TD50 (site: forestomach, lesion: squamous-cell papilloma, dosed 82 weeks, study length 104 weeks) was 230 mg/kg/day and the TD50 (site: heart + peritoneal cavity, lesion: hemangiosarcoma, dosed 60 weeks, study length 60 weeks) was 96.7 mg/kg/day. For the same compound, the TD50 (site: heart, lesion: hemangiosarcoma, dosed 13 weeks, study length 104 weeks) was 32.6 mg/kg/day, the TD50 (site: heart, lesion: hemangiosarcoma, dosed 26 weeks, study length 104 weeks) was 18.5 mg/kg/day and the TD50 (site: heart, lesion: hemangiosarcoma, dosed 40 weeks, study length 104 weeks) was 21.9 mg/kg/day. The TD50 (site: heart, lesion: hemangiosarcoma, dosed 52 weeks, study length 104 weeks) was 13.9 mg/kg/day, the TD50 (site: heart, lesion: hemangiosarcoma, dosed 60 weeks, study length 60 weeks) was 96.7 mg/kg/day and the TD50 (site: heart, lesion: hemangiosarcoma, dosed 82 weeks, study length 104 weeks) was 64.8 mg/kg/day. It also gave a TD50 (site: jejunum, lesion: carcinoma, dosed 82 weeks, study length 104 weeks) of 310 mg/kg/day, a TD50 (site: kidney, lesion: adenoma + tubule adenoma, dosed 52 weeks, study length 104 weeks) of 190 mg/kg/day and a TD50 (site: kidney, lesion: tubule adenoma, dosed 13 weeks, study length 104 weeks) of 201 mg/kg/day. The TD50 (site: kidney, lesion: tubule adenoma, dosed 26 weeks, study length 104 weeks) was 961 mg/kg/day, the TD50 (site: kidney, lesion: tubule adenoma, dosed 40 weeks, study length 104 weeks) was 161 mg/kg/day and the TD50 (site: kidney, lesion: tubule adenoma, dosed 82 weeks, study length 104 weeks) was 268 mg/kg/day. The TD50 (site: liver, lesion: hepatoblastoma + hepatocellular carcinoma, dosed 13 weeks, study length 104 weeks) was 23.4 mg/kg/day, the TD50 (site: liver, lesion: hepatoblastoma + hepatocellular carcinoma, dosed 26 weeks, study length 104 weeks) was 60 mg/kg/day and the TD50 (site: liver, lesion: hepatoblastoma + hepatocellular carcinoma, dosed 52 weeks, study length 104 weeks) was 41.4 mg/kg/day. It also gave a TD50 (site: liver, lesion: hepatocellular adenoma + hepatoblastoma + hepatocellular carcinoma, dosed 13 weeks, study length 104 weeks) of 15.1 mg/kg/day, a TD50 (site: liver, lesion: hepatocellular adenoma + hepatoblastoma + hepatocellular carcinoma, dosed 26 weeks, study length 104 weeks) of 23.8 mg/kg/day and a TD50 (site: liver, lesion: hepatocellular adenoma + hepatoblastoma + hepatocellular carcinoma, dosed 52 weeks, study length 104 weeks) of 13.8 mg/kg/day. It also gave a TD50 (site: liver, lesion: hepatocellular adenoma + hepatocellular carcinoma + neoplastic nodule, dosed 13 weeks, study length 104 weeks) of 15.1 mg/kg/day, a TD50 (site: liver, lesion: hepatocellular adenoma + hepatocellular carcinoma + neoplastic nodule, dosed 26 weeks, study length 104 weeks) of 23.8 mg/kg/day and a TD50 (site: liver, lesion: hepatocellular adenoma + hepatocellular carcinoma + neoplastic nodule, dosed 40 weeks, study length 104 weeks) of 16.8 mg/kg/day. For the same compound, the TD50 (site: liver, lesion: hepatocellular adenoma + hepatocellular carcinoma + neoplastic nodule, dosed 52 weeks, study length 104 weeks) was 14.6 mg/kg/day.
